The values below come from patent US20050267156A1, “Broadspectrum 2-amino-benzothiazole sulfonamide hiv protease inhibitors” (Tibotec Pharmaceuticals Ltd., priority 2002, published 2005).

Series [1] relates to mock-infected MT4 cells. Description: Toxicity on mock-infected cells (MTT). It is filed as cell-based.
Series [2] has as its system HIV-1 strain LAI. Description: Cellular anti-HIV assay (MT4/MTT), wild type. It is filed as cell-based. Conditions: wild type HIV-1 strain LAI, MT4 cells; for EC50: Human immunodeficiency virus 1, read-out: WT (pEC50) (converted).
A short description of series [3]: Pharmacokinetics in rats. It is filed as in vivo, Whistar rats. Conditions: rat. The procedure:
(§1) The pharmacokinetic properties of some compounds of formula (I) were tested on rats and dogs. The compounds were evaluated in Whistar rats, source Iffa Credo, weighing approximately 350 g. Before dosing the animals were fasted overnight (approximately 12 h fasting period). The compounds were dissolved in DMSO or PEG 400. The results represented in the table concern the results from the oral or intra-peritoneal dosing of the compounds. Blood was sampled at 30 min, 1 h, 2 h, 3 h, no pre-dose sample was taken. The amount of the compound in the biological sample was determined using LC-MS. In the table below “or” means oral dosing, “ip” means intraperitoneal dosing, “mpk” means mg per kilogram.

The subject of series [4] is mutant HIV strain E. Description: microbe, parasite or virus in culture. Conditions: for fold resistance Strain E: FR=EC50 (mutant strain)/EC50 (HIV-1 strain LAI); for pEC50 Strain E: mutant HIV strain E, MT4 cells; for EC50: Human immunodeficiency virus 1, MT4, read-out: pEC50 Strain E, mutant HIV strain E, MT4 cells (converted). It counts as cell-based.
For series [5], the system named is mutant HIV strain A. Description: microbe, parasite or virus in culture. It counts as cell-based. Conditions: for fold resistance Strain A: FR=EC50 (mutant strain)/EC50 (HIV-1 strain LAI); for pEC50 Strain A: mutant HIV strain A, MT4 cells; for EC50: Human immunodeficiency virus 1, MT4, read-out: pEC50 Strain A, mutant HIV strain A, MT4 cells (converted).
In series [6] the test system is mutant HIV strain B. As to the kind of experiment: microbe, parasite or virus in culture. It counts as cell-based. Particulars: for fold resistance Strain B: FR=EC50 (mutant strain)/EC50 (HIV-1 strain LAI); for pEC50 Strain B: mutant HIV strain B, MT4 cells; for EC50: Human immunodeficiency virus 1, MT4, read-out: pEC50 Strain B, mutant HIV strain B, MT4 cells (converted).

Series [7] deals with mutant HIV strain D. Description: microbe, parasite or virus in culture. It counts as cell-based. Particulars: for fold resistance Strain D: FR=EC50 (mutant strain)/EC50 (HIV-1 strain LAI); for pEC50 Strain D: mutant HIV strain D, MT4 cells; for EC50: Human immunodeficiency virus 1, MT4, read-out: pEC50 Strain D, mutant HIV strain D, MT4 cells (converted).
The test system of series [8] is mutant HIV strain F. Description: microbe, parasite or virus in culture. It is filed as cell-based. Particulars: for fold resistance Strain F: FR=EC50 (mutant strain)/EC50 (HIV-1 strain LAI); for pEC50 Strain F: mutant HIV strain F, MT4 cells; for EC50: Human immunodeficiency virus 1, MT4, read-out: pEC50 Strain F, mutant HIV strain F, MT4 cells (converted).
Series [9] has as its system mutant HIV strain C. As to the kind of experiment: microbe, parasite or virus in culture. It is filed as cell-based. Conditions: for fold resistance Strain C: FR=EC50 (mutant strain)/EC50 (HIV-1 strain LAI); for pEC50 Strain C: mutant HIV strain C, MT4 cells; for EC50: Human immunodeficiency virus 1, MT4, read-out: pEC50 Strain C, mutant HIV strain C, MT4 cells (converted).

A short description of series [10]: Toxicity on mock-infected cells (MTT). Particulars: human. It is filed as cell-based.
A short description of series [11]: Pharmacokinetics in dogs. It is filed as in vivo. Particulars: dog, or. The procedure: as §1
[12] abbreviates: ip, DMSO, results normalized to 10 mpk.
[13] abbreviates: or, PEG400, results normalized to 10 mpk.
Setting [14] is: Whistar, blood, ip, 10 mpk, ip, DMSO, results normalized to 10 mpk, read-out: Cmax.
Setting [15] is: Whistar, blood, po, 10 mpk, or, PEG400, results normalized to 10 mpk, read-out: Cmax.
[16] abbreviates: Whistar, blood, po, 10 mpk, or, DMSO, results normalized to 10 mpk, read-out: Cmax.

Where two headings read alike, the source gives them in different places.

As a reminder, the Cmax is the highest concentration seen after dosing. As a reminder, the CC50 is the concentration that lowers cell viability or growth by half. High values mean lower toxicity to the cells, low ones greater toxicity to the cells.

Take “{(1S,2R)-3-[(2-amino-benzothiazole-6-sulfonyl)-isobutyl-amino]-1-benzyl-2-hydroxypropyl}-carbamic acid(3R,3aS,6aR)-hexahydro-furo[2,3-b]furan-3-yl ester [Compound 2]”: the “Tox (pCC50)” value in series [1] (mock-infected MT4 cells, pCC50) came to 4.07. Besides, the “WT (pEC50)” value in [2] came out at 8.18. This compound had a Cmax in series [3] (setting [12]) of 427 ng/mL. In addition, the Cmax in series [3] (setting [13]) worked out at 52 ng/mL. Moreover, in series [4], the “fold resistance Strain E” value worked out at 0.5 and the “pEC50 Strain E” value was 8.50. Further, in [5], the “fold resistance Strain A” value amounted to 0.3 and the “pEC50 Strain A” value came to 8.68. Also, in series [6], the “fold resistance Strain B” value is on record as 0.4 and the “pEC50 Strain B” value is 8.59. Further, in series [7], the “fold resistance Strain D” value came out at 0.3 and the “pEC50 Strain D” value stood at 8.69. In series [8], the “fold resistance Strain F” value is on record as 0.5 and the “pEC50 Strain F” value is 8.45. In series [9], the “fold resistance Strain C” value was 0.4 and the “pEC50 Strain C” value was 8.54.
As for `CNc1nc2ccc(S(=O)(=O)N(CC(C)C)C[C@@H](O)[C@H](Cc3ccccc3)NC(=O)COc3c(C)cccc3C)cc2s1` [Compound 15, N-{(1S,2R)-1-benzyl-2-hydroxy-3-[isobutyl-(2-methylamino-benzothiazole-6-sulfonyl)-amino]-propyl}-2-(2,6-dimethyl-phenoxy)-acetamide], it took 91200 nM to reach half-maximal cytotoxicity in [10] (CC50 at 5 days). Also, the EC50 was 11.2 nM in series [2]; 36.3 nM in series [4]; 51.3 nM in [5]; 28.8 nM in series [6]; 50.1 nM in series [7]; 229 nM in series [8]. Also, the EC50 in series [9] was 39.8 nM. In addition, the Cmax in series [3] (setting [14]) amounted to 86 ng/mL; in [3] (setting [15]) it was 10 ng/mL. Also, the “fold resistance Strain E” value in series [4] was determined as 3.2. Further, the “fold resistance Strain A” value in [5] is 4.6. In addition, the “fold resistance Strain B” value in series [6] stood at 2.6. The “fold resistance Strain D” value in series [7] was 4.5. The “fold resistance Strain F” value in series [8] was 20.4. Besides, in series [9], the “fold resistance Strain C” value is 3.5.
`CNc1nc2ccc(S(=O)(=O)N(CC(C)C)C[C@@H](O)[C@H](Cc3ccccc3)NC(=O)OC3COC4OCCC34)cc2s1` (stereo partly drawn) [Compound 4, {(1S,2R)-1-benzyl-2-hydroxy-3-[isobutyl-(2-methylamino-benzothiazole-6-sulfonyl)-amino]-propyl}-carbamic acid hexahydro-furo[2,3-b]furan-3-yl ester]: in series [10], the CC50 at 5 days is above 10000 nM. Moreover, the EC50 in series [2] is 0.457 nM; in series [4], 1.29 nM; in [5], 3.63 nM; in series [6], 1.17 nM; in series [7], 1.17 nM; in series [8], 8.71 nM. Further, the EC50 in [9] is 1.17 nM. Moreover, the values for the Cmax in series [3] (setting [14]), in [3] (setting [16]) and in series [3] (setting [15]) were 1670 ng/mL, 348 ng/mL and 225 ng/mL, respectively. The “fold resistance Strain E” value in [4] was determined as 2.8. Also, the “fold resistance Strain A” value in [5] is 7.9. In addition, the “fold resistance Strain B” value in series [6] stood at 2.6. The “fold resistance Strain D” value in series [7] was determined as 2.6. The “fold resistance Strain F” value in [8] came out at 19.1. Also, the “fold resistance Strain C” value in series [9] worked out at 2.6.
For the compound `CNc1nc2ccc(S(=O)(=O)N(CC(C)C)C[C@@H](O)[C@H](Cc3ccccc3)NC(=O)OCc3cncs3)cc2s1` [Compound 18, {(1S,2R)-1-benzyl-2-hydroxy-3-[isobutyl-(2-methylamino-benzothiazole-6-sulfonyl)-amino]-propyl}-carbamic acid thiazol-5-ylmethyl ester], in series [10], the CC50 at 5 days is 85100 nM. For the same compound, the EC50 is 1.91 nM in [2]; 9.12 nM in [4]; 30.9 nM in series [5]; 21.4 nM in series [7]; 148 nM in series [8]; 7.41 nM in series [9]. Moreover, the peak concentration (Cmax) in [3] (setting [14]) came out at 1140 ng/mL; in series [3] (setting [16]), 396 ng/mL; in [3] (setting [15]), 668 ng/mL; in series [11] (blood, po, 10 mpk, DMSO, results normalized to 10 mpk, read-out: Cmax) it was 15 ng/mL; in [11] (blood, po, 10 mpk, PEG400, results normalized to 10 mpk, read-out: Cmax), 42 ng/mL. Further, in [6], the “pEC50 Strain B” value is 8.21.
Take `CNc1nc2ccc(S(=O)(=O)N(CC(C)C)C[C@@H](O)[C@H](Cc3ccccc3)NC(=O)O[C@H]3CCOC3)cc2s1` [Compound 21, {(1S,2R)-1-benzyl-2-hydroxy-3-[isobutyl-(2-methylamino-benzothiazole-6-sulfonyl)-amino]-propyl}-carbamic acid(S)(tetrahydro-furan-3-yl)ester]: the Cmax in series [3] (setting [12]) came to 1763 ng/mL; in series [3] (or, DMSO, results normalized to 10 mpk), 1139 ng/mL; in [3] (setting [13]) it was 1315 ng/mL; in [11] (PEG400 - 2 animals, results normalized to 10 mpk) it was 61 ng/mL; in series [11] (PEG400 - 4 animals, results normalized to 10 mpk), 184 ng/mL.
As for `CC(C)CN(C[C@@H](O)[C@H](Cc1ccccc1)NC(=O)O[C@H]1CCOC1)S(=O)(=O)c1ccc2nc(N)sc2c1` [Compound 13, {(1S,2R)-3-[(2-amino-benzothiazole-6-sulfonyl)-isobutyl-amino]-1-benzyl-2-hydroxypropyl}-carbamic acid(S) (tetrahydro-furan-3-yl)ester], in series [1], the “Tox (pCC50)” value is reported as below 4. Besides, the “WT (pEC50)” value in series [2] is 8.52. Further, in [4], the “fold resistance Strain E” value was determined as 0.9 and the “pEC50 Strain E” value is recorded as 8.57. Also, in [5], the “fold resistance Strain A” value is 13.5 and the “pEC50 Strain A” value stood at 7.39. In addition, in series [6], the “fold resistance Strain B” value is given as 1.9 and the “pEC50 Strain B” value was 8.24. Moreover, in series [7], the “fold resistance Strain D” value came to 2.5 and the “pEC50 Strain D” value is given as 8.13. Also, in series [8], the “fold resistance Strain F” value was determined as 34.7 and the “pEC50 Strain F” value stood at 6.98. For the same compound, in series [9], the “fold resistance Strain C” value worked out at 1.3 and the “pEC50 Strain C” value was found to be 8.42.
As to `CNc1nc2ccc(S(=O)(=O)N(CC(C)C)C[C@@H](O)[C@H](Cc3ccccc3)NC(=O)O[C@H]3CO[C@H]4OCC[C@H]43)cc2s1` [Compound 5, {(1S,2R)-1-benzyl-2-hydroxy-3-[isobutyl-(2-methylamino-benzothiazole-6-sulfonyl)-amino]-propyl}-carbamic acid(3R,3aS,6aR)-(hexahydro-furo[2,3-b]furan-3-yl)ester], the “Tox (pCC50)” value in series [1] came to 4.15. Moreover, in series [2], the “WT (pEC50)” value turned out to be 9.26. Moreover, in series [5], the “fold resistance Strain A” value is on record as 0.8 and the “pEC50 Strain A” value worked out at 9.37. In series [6], the “fold resistance Strain B” value stood at 0.5 and the “pEC50 Strain B” value is recorded as 9.57. Moreover, in series [8], the “fold resistance Strain F” value is given as 3.5 and the “pEC50 Strain F” value is 8.71. Moreover, in series [9], the “fold resistance Strain C” value was found to be 0.4 and the “pEC50 Strain C” value turned out to be 9.71.
With `CNc1nc2ccc(S(=O)(=O)N(CC(C)C)C[C@@H](O)[C@H](Cc3ccccc3)NC(=O)O[C@H]3CCOC3)cc2s1.O=C(O)C(F)(F)F` [Compound 22, {(1S,2R)-1-benzyl-2-hydroxy-3-[isobutyl-(2-methylamino-benzothiazole-6-sulfonyl)-amino]-propyl}-carbamic acid(S)(tetrahydro-furan-3-yl)ester trifluoroacetate], in series [1], the “Tox (pCC50)” value is given as below 4. Besides, the “WT (pEC50)” value in series [2] was found to be 8.84. Moreover, in series [4], the “fold resistance Strain E” value is on record as 3.0 and the “pEC50 Strain E” value was found to be 8.36. In series [5], the “fold resistance Strain A” value turned out to be 81.3 and the “pEC50 Strain A” value was 6.93. In addition, in [6], the “fold resistance Strain B” value was found to be 10.2 and the “pEC50 Strain B” value was found to be 7.83. Further, in series [7], the “fold resistance Strain D” value came out at 11.5 and the “pEC50 Strain D” value is recorded as 7.78. Also, in [8], the “fold resistance Strain F” value is recorded as 549.5 and the “pEC50 Strain F” value was 6.1. In [9], the “fold resistance Strain C” value turned out to be 4.5 and the “pEC50 Strain C” value stood at 8.19.
